In brackets after ≈: the same amount, converted by molar mass. Like-named read-outs stand apart in the source and are kept apart here. Where only a bound is given, the exact number is not on record here.

One data set deals with Mycoplasma hominis. The data set is described as follows: MIC against Mycoplasma hominis. The format is cell-based. Particulars: N 13.
Data set [1] concerns Streptococci (Groups C, F, G). The data set is described as follows: MIC against Streptococci (Groups C, F, G). The format is cell-based. The settings on record: N 185.
The conditions of data set [2]: speed of uptake and ultimate tissue concentration.
Another data set has as its system TNFα. The data set is described as follows: LPS-induced TNFα production in PMA-differentiated U937 cells (ELISA). The format is cell-based, human. The method, then:
EXAMPLE. […] Cells. The human monocytic cell line U937 was obtained from the American Type Culture Collection (ATCC, Rockville, Md.). PBMCs from COPD patients were obtained from Brompton hospital and separated by AccuSPIN (Sigma-Aldrich). […] U937 cells were differentiated into adherent macrophage-like morphology by exposure to PMA (50 ng/ml) for 48 h in complete growth medium. Cell viability was assessed microscopically by trypan blue staining. Cell toxicity was determined by MTT assay as needed. This study was approved by the ethics committee of the Royal Brompton Hospitals, and all subjects gave written informed consent. Cytokine ELISA. TNFα and IL-8 concentrations in the supernatant of cell cultures were determined by sandwich ELISA according to the manufacturer's instructions (R&D Systems Europe, Abingdon, UK). Statistical analysis. The results were expressed as the mean±SEM. Comparisons of data in two groups were performed using the Student's t test or the Wilcoxon signed rank test. Multiple comparisons were made by one-way ANOVA with post hoc test (Dunnett's) as appropriate. The difference was considered significant at p<0.05. […] Anti-inflammatory effects of solithromycin in U937 cells.
Background: ELISA stands for enzyme-linked immunosorbent assay.

For a further data set, the system named is pathogenic bacteria. It is filed as cell-based.
For a further data set, the system named is Neisseria gonorrhoeae. The data set is described as follows: MIC against Neisseria gonorrhoeae. It is filed as cell-based. Particulars: N 34.
In a further data set the test system is Legionella pneumophila. The format is cell-based.

One may read the MIC50 as the lowest concentration that inhibits either 50% of growth or 50% of the strains tested, depending on the study. Low readings indicate higher susceptibility, high ones lower susceptibility. What is called MIC90 is an inhibitory concentration at the 90% level, which refers to growth in some studies and to a panel of isolates in others. Lower therefore signals greater potency. The IC50 is the concentration needed to halve the response being measured. On to `CC[C@H]1OC(=O)[C@@](C)(F)C(=O)[C@H](C)[C@@H](O[C@@H]2O[C@H](C)C[C@H](N(C)C)[C@H]2O)[C@](C)(OC)C[C@@H](C)C(=O)[C@H](C)[C@H]2N(CCCCn3cc(-c4cccc(N)c4)nn3)C(=O)O[C@]12C` [Solithromycin, solithromycin], for which the MIC50 against Mycoplasma hominis is 0.004 µg/mL (≈ 0.00473 µM); in data set [1] it was not above 0.03 µg/mL; against Neisseria gonorrhoeae, 0.06 µg/mL (≈ 0.071 µM); in the data set with Legionella pneumophila (Legionella pneumophila, N 30) it was not above 0.015 µg/mL. Also, the MIC90 with Mycoplasma hominis was 0.008 µg/mL (≈ 0.00947 µM); in data set [1] it was not above 0.03 µg/mL; with Neisseria gonorrhoeae it was 0.12 µg/mL (≈ 0.142 µM); in the data set with Legionella pneumophila (Legionella pneumophila (30 strains)) it was not above 0.015 µg/mL; in the data set with Legionella pneumophila (Legionella pneumophila, N 30), not above 0.015 µg/mL. The “MIC Range” value against Mycoplasma hominis was 0.002 to 0.008 µg/mL; in data set [1], ≤0.03-0.25^ μg/mL; against Neisseria gonorrhoeae, 0.03 to 0.25 µg/mL; against Legionella pneumophila (Legionella pneumophila, N 30) it was not above 0.015 µg/mL. The “tissue distribution relative to Azi” value in data set [2] is reported as 10 fold. Besides, the IC50 with TNFα (LPS, PMA-differentiated U937 cells, read-out: IC50 on TNFα release) was found to be 41.6 ± 1.9 µM. The “inhibition of TNFα production (in words)” value in the data set with TNFα (solithromycin and telithromycin at 100 μM, clarithromycin at 333 μM) is listed as “significantly inhibited”. The “activity against Azi resistant strains” value with pathogenic bacteria is recorded as “active against all Azi resistant strains tested”. In addition, in the data set on pathogenic bacteria, the “potency relative to Azi” value is given as 8-16 fold. In addition, the “activity relative to conventional macrolides” value in the data set on pathogenic bacteria (greater activity) is 10 fold. Also, the “intracellular activity relative to Azi” value in the data set on pathogenic bacteria (intracellular) is reported as 10 fold.

These data come from US20210137961A1, “Compositions and Methods for Treating Dry Eye Diseases” (priority 2017, published 2021).
